Reference: EP0461039B1, “Benzimidazole derivatives, process and intermediates for their preparation, their use as medicaments and pharmaceutical compositions containing them” (HOECHST MARION ROUSSEL, priority 1990, dated 1991)

Assays:
[1] = target: T1, récepteur de l'angiotensine II (Rattus norvegicus, UniProt P25095); test: Angiotensin II receptor binding test (displacement of 125I angiotensin II, rat liver membranes); details: fresh rat liver membrane preparation, incubation at 25°C for 150 minutes, read-out: CI50 (the source's name)
T1 construct: une préparation membranaire fraîche obtenue à partir de foie de rat; from tissue; host or cells: rat liver membranes
T1 sequence (P25095 1-359): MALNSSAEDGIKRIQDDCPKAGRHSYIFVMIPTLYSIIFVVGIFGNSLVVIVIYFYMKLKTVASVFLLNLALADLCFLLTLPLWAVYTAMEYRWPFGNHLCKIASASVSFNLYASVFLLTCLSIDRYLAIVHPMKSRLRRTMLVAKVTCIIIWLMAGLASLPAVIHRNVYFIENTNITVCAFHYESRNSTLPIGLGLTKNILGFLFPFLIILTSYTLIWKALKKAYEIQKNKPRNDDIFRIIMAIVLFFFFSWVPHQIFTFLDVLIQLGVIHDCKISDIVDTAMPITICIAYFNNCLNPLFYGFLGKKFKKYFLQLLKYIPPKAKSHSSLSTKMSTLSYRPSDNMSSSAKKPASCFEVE
Method: On utilise une préparation membranaire fraîche obtenue à partir de foie de rat. Le tissu est broyé au polytron dans un tampon Tris 50 mM pH 7,4 le broyage est suivi de 3 centrifugations à 30 000 g 15' avec reprises intermédiaires des culots dans le tampon Tris pH 7,4.
Les derniers culots sont remis en suspension dans un tampon d'incubation (Tris 20 mM, NaCl 135 mM, KCl 10 mM, glucose 5 mM, MgCl2 10 mM, fluorure de phényl méthyl sulfonyle 0,3 mM, bacitracine 0,1 mM, bis(triméthylsilyl) acétamide 0,2 %).
On répartit des fractions aliquotes de 2 ml dans des tubes à hémolyse et ajoute de la ^125I angiotensine II (25 000 DPM/tube) et le produit à étudier. (Le produit est d'abord testé à 3 x 10^-5M en triple). Lorsque le produit testé déplace de plus de 50 % la radioactivité liée spécifiquement au récepteur, il est testé à nouveau selon une gamme de 7 concentrations afin de déterminer la concentration qui inhibe de 50 % la radioactivité liée spécifiquement au récepteur. On détermine ainsi la concentration inhibitrice 50 %).
La liaison non spécifique est déterminée par addition d'un produit de référence soit le produit de l'exemple 94 du brevet européen 0253310 à 10^-5M (en triple). On incube à 25°C pendant 150 minutes, remet au bain-marie à 0°C, 5 minutes, filtre sous vide, rince au tampon Tris pH 7,4 et compte la radioactivité en présence du scintillant Triton. […]

[2] = tested on: angiotensine II sur la veine porte isolée; test: Angiotensin II antagonist activity on the isolated portal vein; assay type: cell-based, rats mâles Wistar; details: rat portal vein ring, angiotensin II 3.10^-8M, compound added 15 minutes before stimulation, verapamil 1.10^-6M in the bath; read-out: CI50 (the source's name)
Method: La veine porte est prélevée, sur des rats mâles Wistar (350 g environ) (IFFA Crédo Franc) après dislocation cervicale, et mise rapidement dans une solution physiologique (voir ci-dessous) à température ambiante. Un anneau de 1 mm environ est monté dans un bain à organe isolé contenant 20 ml de la solution physiologique suivante (composition en mM : NaCl 118,3 - KCl 4,7 - MgSO4 1,2 - KH2PO4 1,2 - NaHCO3 25 - glucose 11,1 - CaCl2 2,5) le milieu est maintenu à 37°C et oxygéné par un mélange O2 95 %, CO2 5 %. La tension initiale imposée est de 1 g, les anneaux sont laissés au repos pendant 60 à 90 minutes. Afin d'éviter les contractions spontanées, du vérapamil est ajouté au bain d'incubation (1.10^-6M).
A la fin de la période de repos l'angiotensine II (hypertensine Ciba) 3.10^-8M est ajoutée dans le bain d'incubation et laissée au contact de la préparation pendant 1 minute. Cette opération est répétée chaque 30 minutes, le tissu étant lavé 3 ou 4 fois entre deux stimulations à l'angiotensine. Le composé à étudier est introduit dans le bain 15 minutes avant une nouvelle stimulation par l'angiotensine. Des concentrations croissantes de la molécule étant appliquées, une CI50 (concentration qui produit une inhibition de 50 % de la réponse à l'angiotensine) peut être calculée, celle-ci est exprimée en nanomoles.

IC50 [1]: 52 nM | IC50 [2]: 9.5 nM
SMILES: CCCCc1nc2cccc(C(=O)O)c2n1Cc1ccc(-c2ccccc2C(=O)O)cc1 [Exemple 2, Acide 2-butyl 1-[(2'-carboxybiphényl-4-yl)méthyl] 1H-benzimidazole-7-carboxylique]
